Results reported in USRE48097E1, “Cephem compounds, their production and use” (priority 2015, dated 2020).
Values after ≈ are worked out from the molar mass of the structure shown. Read-outs that look alike come from different tables or passages of the source.

Assays:
S. aureus3137 = assay: MIC against S. aureus3137; type: cell-based, S. aureus; conditions: Table 2, S. aureus3137, MSSA
Excerpt: (§1) Without limitation, the present cephem compounds alone, or in combination with one or more β-lactamase inhibitors, may provide improved antibacterial efficacy, particularly in antibiotic-resistant bacterial strains. It is believed that the present compounds may be structurally different from known compounds and, as a result, may be more basic in nature. It is an advantage that the present compounds may extend the spectrum of effective bacterial compounds, particularly against previously-resistant bacteria (e.g. ESKAPE organisms), and/or gram negative bacteria, without significant side effects. In a preferred embodiment, the present cephem compound may comprise reference compound ceftazidime, which may be used alone, or in combination with one or more β-lactamase inhibitors, such as NXL-104. As shown, the foregoing composition was tested for minimum inhibitory concentration (MIC, μg/mL) against bacteria listed in Tables 2-3.

S. aureus 3147 = assay: MIC against S. aureus 3147; type: cell-based; conditions: Table 2, S. aureus 3147, MSSA
Excerpt: as §1

[1] = tested on: S. pneumoniae ATCC 700673; assay: MIC against S. pneumoniae ATCC 700673; type: cell-based; conditions: Table 2, S. pneumoniae ATCC 700673, Pen R
Excerpt: as §1

S. pneumoniae 2403 = assay: MIC against S. pneumoniae 2403; type: cell-based; conditions: Table 2, S. pneumoniae 2403, Pen S
Excerpt: as §1

S. pneumoniae 2405 = assay: MIC against S. pneumoniae 2405; type: cell-based; conditions: Table 2, S. pneumoniae 2405, Pen S
Excerpt: as §1

S. pneumoniae 2406 = assay: MIC against S. pneumoniae 2406; type: cell-based; conditions: Table 2, S. pneumoniae 2406, Pen S
Excerpt: as §1

E. cloacae 2704 = assay: MIC against E. cloacae 2704; type: cell-based; conditions: Table 2, E. cloacae 2704, P99
Excerpt: as §1

E. cloacae 566 = assay: MIC against E. cloacae 566; type: cell-based; conditions: Table 2, E. cloacae 566, Caz R, IMP S
Excerpt: as §1

E. cloacae 2044 = assay: MIC against E. cloacae 2044; type: cell-based; conditions: Table 2, E. cloacae 2044, Caz S, IMP S
Excerpt: as §1

C. freundii 15 = assay: MIC against C. freundii 15; type: cell-based; conditions: Table 2, C. freundii 15, Caz R, IMP S
Excerpt: as §1

C. freundii 579 = assay: MIC against C. freundii 579; type: cell-based; conditions: Table 2, C. freundii 579, Caz R, IMP S
Excerpt: as §1

C. freundii 2487 = assay: MIC against C. freundii 2487; type: cell-based; conditions: Table 2, C. freundii 2487, Caz R, IMP S
Excerpt: as §1

K. pneumoniae 4106 = assay: MIC against K. pneumoniae 4106; type: cell-based; conditions: K. pneumoniae 4106, KPC-3, TEM-1, SHV-12, SHV-141
Protocol: (§2) As shown, the foregoing composition was tested for minimum inhibitory concentration (MIC, μg/mL) against bacteria listed in Tables 2-3.

K. pneumoniae 4107 = assay: MIC against K. pneumoniae 4107; type: cell-based; conditions: K. pneumoniae 4107, KPC-2, TEM-1, SHV-11
Protocol: as §2

K. pneumoniae 2689 = assay: MIC against K. pneumoniae 2689; type: cell-based; conditions: K. pneumoniae 2689, KPC-2
Protocol: as §2

K. pneumoniae 2697 = assay: MIC against K. pneumoniae 2697; type: cell-based; conditions: Table 2, K. pneumoniae 2697, IMP-4
Excerpt: as §1

E. coli 4080 = assay: MIC against E. coli 4080; type: cell-based; conditions: Table 2, E. coli 4080, TEM-10
Excerpt: as §1

E. coli 4102 = assay: MIC against E. coli 4102; type: cell-based; conditions: Table 2, E. coli 4102, CTX-M-14
Excerpt: as §1

E. cloacae 2689 = assay: MIC against E. cloacae 2689; type: cell-based; conditions: Table 3, E. cloacae 2689, KPC-2
Protocol: as §2

E. cloacae 2705 = assay: MIC against E. cloacae 2705; type: cell-based; conditions: Table 3, E. cloacae 2705, VIM-1, KPC-3type
Protocol: as §2

E. cloacae 2710 = assay: MIC against E. cloacae 2710; type: cell-based; conditions: Table 3, E. cloacae 2710, KPC-3, VIM-1
Protocol: as §2

K. pneumoniae 2690 = assay: MIC against K. pneumoniae 2690; type: cell-based; conditions: Table 3, K. pneumoniae 2690, KPC-2
Protocol: as §2

K. pneumoniae 2711 = assay: MIC against K. pneumoniae 2711; type: cell-based; conditions: Table 3, K. pneumoniae 2711, KPC-3, VIM-1
Protocol: as §2

[2] = Staphylococcus aureus, alone, read-out: MIC
[3] = Streptococcus pneumoniae, alone, read-out: MIC
[4] = Enterobacter cloacae, alone, read-out: MIC
[5] = Citrobacter freundii, alone, read-out: MIC
[6] = Table 2, in combination with NXL-104
[7] = Table 3, in combination with NXL-104
[8] = Klebsiella pneumoniae, alone, read-out: MIC
[9] = Escherichia coli, alone, read-out: MIC

CC(C)(O/N=C(\C(=O)N[C@@H]1C(=O)N2C(C(=O)[O-])=C(C[n+]3ccc4c(ccn4Cc4cc(C(=N)N)cs4)c3)CS[C@H]12)c1csc(N)n1)C(=O)O [Example 5, (6R,7R)-7-{[(2Z)-2-(2-Amino-1,3-thiazol-4-yl)-2-{[(2-carboxypropan-2-yl)oxy]imino}acetyl]amino}-3-({1-[(4-carbamimidoylthiophen-2-yl)methyl]-1H-pyrrolo[3,2-c]pyridin-5-ium-5-yl}methyl)-8-oxo-5-thia-1-azabicyclo[4.2.0]oct-2-ene-2-carboxylate]
MIC (S. aureus3137; [2]): 32 µg/mL | MIC (S. aureus3137; in combination with NXL-104): 4.00 µg/mL | MIC (S. aureus 3147; [2]): 2 µg/mL | MIC (S. aureus 3147; in combination with NXL-104): 2.00 µg/mL | MIC ([1]; Streptococcus pneumoniae, ATCC700673, alone, read-out: MIC): 2 µg/mL | MIC ([1]; in combination with NXL-104): 2.00 µg/mL | MIC (S. pneumoniae 2403; [3]): ≤ 0.06 µg/mL | MIC (S. pneumoniae 2403; in combination with NXL-104): ≤0.06 µg/mL | MIC (S. pneumoniae 2405; [3]): ≤ 0.06 µg/mL | MIC (S. pneumoniae 2405; in combination with NXL-104): ≤0.06 µg/mL | MIC (S. pneumoniae 2406; [3]): ≤ 0.06 µg/mL | MIC (S. pneumoniae 2406; in combination with NXL-104): ≤0.06 µg/mL | MIC (E. cloacae 2704; [4]): 16 µg/mL | MIC (E. cloacae 2704; in combination with NXL-104): 2.00 µg/mL | MIC (E. cloacae 566; [4]): 2 µg/mL | MIC (E. cloacae 566; in combination with NXL-104): 0.50 µg/mL | MIC (E. cloacae 2044; [4]): 0.5 µg/mL | MIC (E. cloacae 2044; in combination with NXL-104): 0.12 µg/mL | MIC (C. freundii 15; [5]): 16 µg/mL | MIC (C. freundii 15; in combination with NXL-104): 0.50 µg/mL | MIC (C. freundii 579; [5]): 4 µg/mL | MIC (C. freundii 579; in combination with NXL-104): 0.25 µg/mL | MIC (C. freundii 2487; [5]): 32 µg/mL | MIC (C. freundii 2487; in combination with NXL-104): 1.00 µg/mL | MIC (K. pneumoniae 4106; Klebsiella pneumoniae, 4106, Table 2, alone, read-out: MIC): 16 µg/mL (≈ 22.1 µM) | MIC (K. pneumoniae 4106; Klebsiella pneumoniae, 4106, Table 3, alone, read-out: MIC): 32 µg/mL (≈ 44.2 µM) | MIC (K. pneumoniae 4106; [6]): 1.00 µg/mL | MIC (K. pneumoniae 4106; [7]): 2 µg/mL | MIC (K. pneumoniae 4107; Klebsiella pneumoniae, 4107, Table 2, alone, read-out: MIC): 32 µg/mL (≈ 44.2 µM) | MIC (K. pneumoniae 4107; Klebsiella pneumoniae, 4107, Table 3, alone, read-out: MIC): 16 µg/mL (≈ 22.1 µM) | MIC (K. pneumoniae 4107; [6]): 2.00 µg/mL | MIC (K. pneumoniae 4107; [7]): 1 µg/mL | MIC (K. pneumoniae 2689; Klebsiella pneumoniae, 2689, Table 2, alone, read-out: MIC): 8 µg/mL (≈ 11.1 µM) | MIC (K. pneumoniae 2689; Klebsiella pneumoniae, 2689, Table 3, alone, read-out: MIC): 8 µg/mL (≈ 11.1 µM) | MIC (K. pneumoniae 2689; [6]): 1.00 µg/mL | MIC (K. pneumoniae 2689; [7]): 1 µg/mL | MIC (K. pneumoniae 2697; [8]): 16 µg/mL | MIC (K. pneumoniae 2697; in combination with NXL-104): 0.50 µg/mL | MIC (E. coli 4080; [9]): 16 µg/mL | MIC (E. coli 4080; in combination with NXL-104): 0.50 µg/mL | MIC (E. coli 4102; [9]): 1 µg/mL | MIC (E. coli 4102; in combination with NXL-104): ≤0.06 µg/mL | MIC (E. cloacae 2689; [4]): 16 µg/mL (≈ 22.1 µM) | MIC (E. cloacae 2689; in combination with NXL-104): 0.5 µg/mL | MIC (E. cloacae 2705; [4]): > 32 µg/mL | MIC (E. cloacae 2705; in combination with NXL-104): >32 µg/mL | MIC (E. cloacae 2710; [4]): > 32 µg/mL | MIC (E. cloacae 2710; in combination with NXL-104): >32 µg/mL | MIC (K. pneumoniae 2690; [8]): 8 µg/mL (≈ 11.1 µM) | MIC (K. pneumoniae 2690; in combination with NXL-104): .5 µg/mL | MIC (K. pneumoniae 2711; [8]): 2 µg/mL (≈ 2.76 µM) | MIC (K. pneumoniae 2711; in combination with NXL-104): 0.25 µg/mL
